Assay results as given in article PMC11915372, “Identification of a Series Containing a Pentafluorophenyl Moiety That Targets Pks13 to Inhibit Growth of Mycobacterium tuberculosis” (ACS Infectious Diseases, 2025).
Several values for one entry are separate records, joined by “and”; a condition that tells them apart may be missing. Equal entries are not always repeated.

Tested on: H37Rv cells
Assay type: cell-based, Mycobacterium tuberculosis

## CN(C)c1ncnc2sc(-c3c(F)c(F)c(F)c(F)c3F)nc12.Cl [Compound 1, CN(C)c1ncnc2sc(nc12)-c1c(c(c(c(c1F)F)F)F)F]
  frequency of resistant colonies: 10^–7 and 10^–8
